Data on four compounds can be found in article PMC10865344, “Self-Assembly and Antimicrobial Activity of Lipopeptides Containing Lysine-Rich Tripeptides” (Biomacromolecules, 2024).

One data set concerns E. coli K-12. Type of data set: cell-based, Escherichia coli. The conditions noted are these: K-12, 24 h. Here is the method:
(§1) Antibacterial susceptibility testing was performed using a broth microdilution assay, against both Gram-negative and Gram-positive bacteria, as previously described by Kourmentza et al.[44] The target strains used were E. coli K-12, S. enterica NCTC 5188, and S. aureus NCDO 949. The test compounds were dissolved in water, filter-sterilized, and further diluted in Mueller-Hinton broth (MHB) which was used as the growth medium for the tests. 2-fold dilutions were performed, and 100 μL of each dilution was transferred to each well of 96-well plates. The final test concentration range of the compounds was 1.95–1000 μg/mL. Additionally, the 96-well plates contained wells with 200 μL of growth medium that served as sterility controls and wells filled with 100 μL of growth medium and 100 μL of inoculum that served as growth controls. The remaining wells were inoculated with 100 μL of a bacterial culture. The bacterial suspensions were prepared from overnight cultures in MHB. The bacterial density was adjusted to 0.5 McFarland (standard), and the suspensions were subsequently diluted 100 times using the growth medium. The 96-well plates were incubated at 37 °C for 24 h and the OD at 620 nm of the wells was assessed for growth. The MIC was defined as the lowest concentration of the antimicrobial agent tested that prevented any discernible growth after 24 h.
(§2) Since all the molecules are biocompatible at low concentrations, their antibacterial efficacy was examined in preliminary tests using a broth microdilution assay against both Gram-negative and Gram-positive bacteria. Here, E. coli K-12, S. enterica NCTC 5188 were cultured as Gram-negative bacteria and S. aureus NCDO 949 was used as a model Gram-positive bacterium. The lipopeptides were dissolved in water, filter-sterilized, and further diluted in Mueller-Hinton broth, which was used as the growth medium for the experiment to determine MIC values. […] E. coli was most susceptible to compounds P1 and P1D with MICs falling within the range of 15.63–31.25 μg/mL (Table 1). […] Overall, the P1 analogues have lower MIC values than those for the P2 analogues, especially for S. enterica.

The next data set deals with S. aureus NCDO 949. The class given is cell-based, Staphylococcus aureus. The conditions noted are these: NCDO 949, 24 h. The protocol:
as §1, §2

Data set [1] deals with L929 murine fibroblast cell lines. The conditions noted are these: 48 h, 0.05 wt %.
Protocol: L929 murine fibroblast cell lines (ECACC General Cell Collection) were grown in Dulbecco’s modified Eagle’s medium (DMEM) supplemented with 10% fetal bovine serum (FBS), 20 mM HEPES, and 1% GlutaMAX. The cells were maintained at pH 7.4, 37 °C, and 5% CO2 in 25 cm^2 cell culture flasks.
For the cytotoxicity assay, approximately 6000 cells per well were seeded in 96-well plates. The medium was exchanged after 24 h by adding solutions of different concentrations of the lipopeptides ranging from 0.05 to 0.0001 wt %. After 48 h of treatment, cell viability was assessed using an MTT [3-(4, 5-dimethylthiazolyl-2)-2, 5-diphenyltetrazolium bromide] assay. Here, the culture medium was removed, followed by the addition of a solution of MTT in DMEM medium at a concentration of 0.5 mg/mL. The plate was incubated for 4 h at 37 °C. Next, to dissolve the formazan crystals, dimethyl sulfoxide was added. Thereafter, using an automatic plate reader, the absorbance was measured at 560 nm. Cell survival was expressed as a percentage of viable cells in the presence of peptides compared with control cells grown in their absence. The assay was repeated three times, and the results were averaged. Statistical significance was tested using multiple Student’s t-tests.
Here, the cytotoxicity of all the lipopeptides was investigated by MTT assays on L929 murine fibroblast cell lines. […] For all the lipopeptides, the cytotoxicity results were obtained after 48 h of cell culture.
Data set [2] can be described thus: Critical aggregation concentration (CAC) by ANS fluorescence probe assay. Type of data set: physicochemical. The conditions noted are these: 2 × 10^–3 wt % ANS solution, λex = 356 nm, emission 486 nm, 25 °C, aqueous solution. Here is the method:
Fluorescence experiments were carried out using a Varian Cary Eclipse spectrofluorometer in 4 mm inner-width quartz cuvettes. Excitation and emission bandwidths of 2.5 nm were used as the experimental settings. The temperature was set at 25 °C for all of the experiments. The CAC value for all of the lipopeptides was assessed by fluorescence experiments with 8-anilo-1-naphthalenesulfonic acid (ANS). ANS is a suitable fluorophore to determine the CAC value, due to changes in local hydrophobicity.[43] For this assay, various concentrations of samples were prepared in 2 × 10^–3 wt % ANS solution. Fluorescence spectra were recorded from 400 to 670 nm with λex = 356 nm.
To determine the CAC value of individual lipopeptides, the results were plotted as I/I0 versus log(c/wt %), where I stands for the maximum fluorescence intensity of ANS containing the various concentrations of samples and I0 stands for the intensity for the control, i.e., ANS solution without lipopeptide.
To determine CAC values of these lipopeptides, fluorescence probe assays using ANS were performed.[43] Emission spectra of the four lipopeptides were collected at different concentrations after excitation at 356 nm. At higher concentrations, an emission peak at 486 nm is visible. […] The lower CAC values for P2 and P2D are due to the higher hydrophobicity of tryptophan than tyrosine.

A further data set concerns S. enterica NCTC 5188. Description: Antibacterial susceptibility, broth microdilution assay (MIC). The class given is cell-based, Salmonella enterica. The conditions noted are these: S. enterica NCTC 5188, broth microdilution in Mueller-Hinton broth, 37 °C, 24 h, OD 620 nm, test range 1.95–1000 μg/mL. The protocol:
as §1, with “24 h. […]” for “24 h.”
In general terms: Broth dilution looks for growth in wells or tubes with falling amounts of substance.

A short description of data set [3]: SAXS of micelles, core-shell sphere form factor and hard sphere structure factor fit. The class given is physicochemical. Here is the method: SAXS experiments were performed on beamline B21 at Diamond (Didcot, UK). The sample solutions were loaded into the 96-well plate of an EMBL BioSAXS robot and then injected via an automated sample exchanger into a quartz capillary (1.8 mm internal diameter) with the X-ray beam. The quartz capillary was enclosed in a vacuum chamber to avoid parasitic scattering. After the sample was injected into the capillary and reached the X-ray beam, the flow was stopped during SAXS data acquisition. Beamline B21 operates with a fixed camera length (3.9 m) and fixed energy (12.4 keV). The images were captured by using a PILATUS 2 M detector. Data processing was performed by using the dedicated beamline software ScÅtter.
More quantitative information about these self-assembled nanostructures was obtained from SAXS, also performed for 1 wt % aqueous solutions of the four lipopeptides. Consistent with cryo-TEM, the form factors for P1, P1D, P2, and P2D can be fitted based on the core–shell sphere structure corresponding to a hydrophobic core and peptide corona. The fit parameters listed in SI Table S1 show outer radii in the range (2.47–2.90 ± 0.4) nm, consistent with cryo-TEM. The inner core radius is 1.45–1.56 nm, which is consistent with the length of an extended C16 lipid chain plus the first hydrophobic amino acid (Y or W). […] The shell thickness may be compared to the length of a tripeptide in an extended structure (such as PPII), 3 × 0.31 nm = 0.93 nm (residue translation value taken from ref ([55])) and is in good agreement with this value for P1, P1D, and P2D. […] The form factor parameters are the same within uncertainties for the other three lipopeptides. The association number can be estimated for P1 (similar values are expected for P1D and P2D since the micelle radius and molecular volume are similar) using the volume of a micelle Vmic = 4/3π(2.52 nm)^3 = 67.0 nm^3, while the molecular volume Vmol = 0.62 nm^3 was obtained from the hydrophobicity surface/molecular volume calculation in UCSF Chimera.[56] This leads to an estimated association number p = Vmic/Vmol = (108 ± 20). […]

Setting [4] is: 1 wt% sample at native pH = 4, core-shell sphere form factor.

In brackets after ≈: the same amount, converted by molar mass. Where a SMILES comes first, the peptide text is derived from it. [ ]: non-standard residue; d: D form. The star is where a group is joined. Palmitoyl = CCCCCCCCCCCCCCCC(=O)*

Usually MIC stands for the lowest concentration that inhibits growth of the organism. A high value points to weaker potency. One may read the cell viability as a per cent measure of how many cells are alive, often set against a control. Low readings indicate more harm to the cells, high ones less harm to the cells. For the compound `CCCCCCCCCCCCCCCC(=O)N[C@@H](Cc1ccc(O)cc1)C(=O)N[C@H](CCCCN)C(=O)N[C@H](CCCCN)C(N)=O` [P1D] (Palmitoyl-Tyr-[dK]-[dK]-NH2), the MIC is 15.63 to 31.25 µg/mL against E. coli K-12 and 31.25 µg/mL (≈ 46.3 µM) against S. aureus NCDO 949. The “lower range MIC value for E. coli as molar concentration” value (“lower range MIC value for E. coli” for short) with E. coli K-12 fell in the range of 22 to 23 µM. The cell viability in data set [1] is on record as 44.1 ± 7.6%.
For `CCCCCCCCCCCCCCCC(=O)N[C@@H](Cc1ccc(O)cc1)C(=O)N[C@@H](CCCCN)C(=O)N[C@@H](CCCCN)C(N)=O` [P1] (Palmitoyl-Tyr-Lys-Lys-NH2), in the data set on E. coli K-12, the minimum inhibitory concentration (MIC) fell in the range of 15.63 to 31.25 µg/mL and the “lower range MIC value for E. coli” value lay in the range of 22 to 23 µM. For the same compound, the MIC against S. aureus NCDO 949 is 31.25 to 62.5 µg/mL. This compound registered a cell viability in data set [1] of 53.1 ± 5.1%.
Turning to `CCCCCCCCCCCCCCCC(=O)N[C@@H](Cc1c[nH]c2ccccc12)C(=O)N[C@H](CCCCN)C(=O)N[C@H](CCCCN)C(N)=O` [P2D] (Palmitoyl-Trp-[dK]-[dK]-NH2), the “CAC (concentration at the breakpoint of I/I0 at 486 nm vs concentration)” value in data set [2] turned out to be 0.00257 ± 0.05 wt %. In addition, the MIC with E. coli K-12 is 31.25 to 62.5 µg/mL; in the data set with S. enterica NCTC 5188, 62.5 µg/mL (≈ 89.5 µM); in the data set with S. aureus NCDO 949 it was 31.25 to 62.5 µg/mL. Besides, in data set [3] (setting [4]), the “Ri, micelle inner core radius” value was 15.1 Å. The “Ro, micelle outer radius” value in data set [3] (setting [4]) came out at 26.3 Å. Further, the “RHS, hard sphere radius” value in data set [3] (1 wt% sample at native pH = 4, hard sphere structure factor) was 79.3 Å. For the same compound, the cell viability in data set [1] is 13.0 ± 1.1%.
Turning to `CCCCCCCCCCCCCCCC(=O)N[C@@H](Cc1c[nH]c2ccccc12)C(=O)N[C@@H](CCCCN)C(=O)N[C@@H](CCCCN)C(N)=O` [P2] (Palmitoyl-Trp-Lys-Lys-NH2), the MIC was 15.63 to 62.5 µg/mL against E. coli K-12, 62.5 to 250 µg/mL against S. enterica NCTC 5188 and 31.25 to 62.5 µg/mL in the data set on S. aureus NCDO 949. Besides, in the data set on E. coli K-12, the “lower range MIC value for E. coli” value fell in the range of 22 to 23 µM. In addition, the cell viability in data set [1] was 20.2 ± 2.8%.
